# Laboratory results from patent US20070092474A1, “Carnitine salt, preliposome which contains it and dermocosmetic formula for topical use based upon said carnitine salt” (priority 2003, published 2007).
# “And” between values parts separate entries of the source, which are not always exact repeats. Equal values may be shown once.
# Test system: skin blemishes caused by cellulite and localised adiposity
# Test: Thigh circumference measured with a measuring tape, dermatological test of the cosmetic gel
# Assay type: in vivo, female volunteers
# Design: RIGHT THIGH CIRCUMFERENCE 1/3 T0 / RIGHT THIGH CIRCUMFERENCE 3/3 T15 / RIGHT THIGH CIRCUMFERENCE 3/3 T30 / RIGHT THIGH CIRCUMFERENCE 3/3 T60 / RIGHT THIGH CIRCUMFERENCE 1/3 T15 / RIGHT THIGH CIRCUMFERENCE 1/3 T60 / RIGHT THIGH CIRCUMFERENCE 2/3 T0 / RIGHT THIGH CIRCUMFERENCE 2/3 T15 / RIGHT THIGH CIRCUMFERENCE 2/3 T30 / RIGHT THIGH CIRCUMFERENCE 2/3 T60 / RIGHT THIGH CIRCUMFERENCE 3/3 T0 / LEFT THIGH CIRCUMFERENCE 3/3 T60 / LEFT THIGH CIRCUMFERENCE 1/3 T15 / LEFT THIGH CIRCUMFERENCE 1/3 T30 / LEFT THIGH CIRCUMFERENCE 1/3 T60 / LEFT THIGH CIRCUMFERENCE 2/3 T0 / LEFT THIGH CIRCUMFERENCE 2/3 T15 / LEFT THIGH CIRCUMFERENCE 3/3 T0: unit not given beside the values
# Experimental: A dermatological test was carried out on 25 female volunteers between 18 and 65 years of age, with the backing of the Department of Physiological and Pharmacological Sciences of the university of Pavia. The investigation aimed to check the modification of three anatomical-physiological parameters, qualifying the unaesthetic-functional aspect connected to the manifestation of so-called cellulite and subcutaneous hypertriglyceridaemia: measurement of the skin folds, measurement of the circumference of the thighs, thermographic skin measurement.
# The test stretched out over 60 days with the continual daily application of the aforementioned preparation of cosmetic gel. The measurements were carried out after 15, 30 and 60 days. The detail of the test protocol and of the results obtained is shown hereafter.
# 25 female volunteers aged between 18 and 65, with the presence of skin blemishes caused by cellulite and localised adiposity, were selected according to the following criteria: good general state of health, absence of skin pathologies, not being under medication, commitment not to vary the normal daily routine, no medical history of atopy.
# The samples were tested by uniformly applying them on “Glute SX Glute DJ (Femoris Posto SX Femoris Posto DX Femoris Ant. SX Femoris Ant. DX” every day at least once per day for the entire duration of the test.
# At the time of inclusion in the study and during the subsequent checks after 15 days (T15), after 30 days (T30) and after 60 days (T60) of treatment the following instrumental measurements were taken: • plicometry (through a plicometer) • thigh circumference (through a measuring tape broken into millimetres) • contact thermography (through liquid crystal thermographic plates).
# [1] = MEDIA of 25 volunteers, T0 at inclusion, before treatment
# [2] = MEDIA of 25 volunteers, after 15 days of daily gel application
# [3] = MEDIA of 25 volunteers, after 30 days of daily gel application
# [4] = MEDIA of 25 volunteers, after 60 days of daily gel application
# [5] = individual volunteer, T0 at inclusion, before treatment
# [6] = individual volunteer, after 15 days of daily gel application
# [7] = individual volunteer, after 30 days of daily gel application
# [8] = individual volunteer, after 60 days of daily gel application
substance,measurement,setting,value
carnitine hydroxycitrate [carnitine hydroxy citrate],"LEFT THIGH CIRCUMFERENCE 1/3 T0, MEDIA",[1],53.1
same,"LEFT THIGH CIRCUMFERENCE 2/3 T0, MEDIA",[1],50.2
same,"LEFT THIGH CIRCUMFERENCE 3/3 T0, MEDIA",[1],40.3
same,"RIGHT THIGH CIRCUMFERENCE 1/3 T0, MEDIA",[1],53.1
same,"RIGHT THIGH CIRCUMFERENCE 2/3 T0, MEDIA",[1],50.3
same,"RIGHT THIGH CIRCUMFERENCE 3/3 T0, MEDIA",[1],40.4
same,"LEFT THIGH CIRCUMFERENCE 1/3 T15, MEDIA",[2],52.7
same,"LEFT THIGH CIRCUMFERENCE 2/3 T15, MEDIA",[2],49.7
same,"LEFT THIGH CIRCUMFERENCE 3/3 T15, MEDIA",[2],39.8
same,"RIGHT THIGH CIRCUMFERENCE 1/3 T15, MEDIA",[2],53.3
same,"RIGHT THIGH CIRCUMFERENCE 2/3 T15, MEDIA",[2],49.2
same,"RIGHT THIGH CIRCUMFERENCE 3/3 T15, MEDIA",[2],39.5
same,"LEFT THIGH CIRCUMFERENCE 1/3 T30, MEDIA",[3],51.6
same,"LEFT THIGH CIRCUMFERENCE 2/3 T30, MEDIA",[3],48.8
same,"LEFT THIGH CIRCUMFERENCE 3/3 T30, MEDIA",[3],38.7
same,"RIGHT THIGH CIRCUMFERENCE 1/3 T30, MEDIA",[3],51.8
same,"RIGHT THIGH CIRCUMFERENCE 2/3 T30, MEDIA",[3],48.8
same,"RIGHT THIGH CIRCUMFERENCE 3/3 T30, MEDIA",[3],38.8
same,"LEFT THIGH CIRCUMFERENCE 1/3 T60, MEDIA",[4],50.7
same,"LEFT THIGH CIRCUMFERENCE 2/3 T60, MEDIA",[4],47.9
same,"LEFT THIGH CIRCUMFERENCE 3/3 T60, MEDIA",[4],38.1
same,"RIGHT THIGH CIRCUMFERENCE 1/3 T60, MEDIA",[4],50.7
same,"RIGHT THIGH CIRCUMFERENCE 2/3 T60, MEDIA",[4],47.7
same,"RIGHT THIGH CIRCUMFERENCE 3/3 T60, MEDIA",[4],38.0
same,LEFT THIGH CIRCUMFERENCE 1/3 T0,[5],55.0 and 52.8 (2×) and 51.7 and 64.0 and 55.7 (3×) and 51.0 and 47.6 and 49.0 and 52.5 and 56.6 and 58.1 and 55.2 and 47.1 and 47.0 and 48.5 and 52.1 and 50.2 and 52.7 and 49.7 and 60.6 and 48.2 and 59.2
same,LEFT THIGH CIRCUMFERENCE 2/3 T0,[5],49.9 and 51.3 and 49.0 and 58.4 and 52.4 and 46.9 and 46.2 and 47.9 (2×) and 50.4 and 52.9 and 55.9 (2×) and 56.7 and 48.9 and 46.7 and 52.6 and 44.0 and 45.4 (2×) and 52.0 and 51.4 and 48.2 and 44.9 and 54.6
same,LEFT THIGH CIRCUMFERENCE 3/3 T0,[5],41.2 (2×) and 39.7 (2×) and 48.0 and 37.6 (2×) and 36.4 (2×) and 37.7 and 38.4 and 39.8 and 37.8 and 43.1 and 43.2 and 37.4 and 38.7 (2×) and 37.9 and 47.2 and 44.2 and 38.6 and 43.8 and 36.3 and 46.4
same,RIGHT THIGH CIRCUMFERENCE 1/3 T0,[5],55.0 and 53.2 and 52.0 (2×) and 64.7 and 55.7 (2×) and 50.6 and 48.1 and 49.0 and 53.0 and 56.9 and 59.0 and 55.2 and 52.6 and 47.0 (2×) and 48.3 and 52.2 and 54.9 and 50.2 and 50.8 and 60.8 and 48.2 and 56.0
same,RIGHT THIGH CIRCUMFERENCE 2/3 T0,[5],49.9 and 51.3 and 49.0 and 58.4 and 52.5 and 47.2 and 46.5 and 47.9 (2×) and 50.4 and 52.9 and 55.9 and 56.8 and 49.2 and 46.7 and 52.6 and 44.0 and 45.4 (2×) and 52.0 and 51.4 and 48.2 and 45.3 and 55.6 and 54.6
same,RIGHT THIGH CIRCUMFERENCE 3/3 T0,[5],41.2 (2×) and 39.7 and 48.0 and 37.6 (2×) and 36.4 (2×) and 37.7 and 38.4 (2×) and 39.8 and 37.8 and 45.3 and 43.2 and 37.4 and 38.6 and 39.0 and 37.9 and 39.5 and 47.5 and 44.1 and 43.8 and 36.3 and 46.4
same,LEFT THIGH CIRCUMFERENCE 1/3 T15,[6],54.5 and 52.3 (2×) and 51.2 and 63.5 and 55.2 (3×) and 50.5 and 47.1 and 48.5 and 52.0 and 56.1 and 57.6 and 54.7 and 46.6 and 46.5 and 48.0 and 51.6 and 49.7 and 52.2 and 49.2 and 60.5 and 47.7 and 58.7
same,LEFT THIGH CIRCUMFERENCE 2/3 T15,[6],49.4 and 50.8 and 48.5 and 57.9 and 51.9 and 46.4 and 45.7 and 47.4 (2×) and 49.9 and 52.4 and 55.4 (2×) and 56.2 and 48.4 and 46.2 and 52.1 and 43.5 and 44.9 (2×) and 51.5 and 50.9 and 47.7 and 44.4 and 54.1
same,LEFT THIGH CIRCUMFERENCE 3/3 T15,[6],40.7 (2×) and 39.2 (2×) and 47.5 and 37.1 (2×) and 35.9 (2×) and 37.2 and 37.9 and 39.3 and 37.3 and 42.6 and 42.7 and 36.9 and 38.2 (2×) and 37.4 and 46.7 and 43.7 and 38.1 and 43.3 and 35.8 and 45.9
same,RIGHT THIGH CIRCUMFERENCE 1/3 T15,[6],55.9 and 52.8 and 53.2 and 65.3 and 55.3 and 49.4 and 48.4 and 49.8 and 53.3 and 57.6 and 59.2 and 54.3 and 50.5 and 48.1 and 56.3 and 48.0 (2×) and 48.8 and 51.8 and 54.5 and 51.0 and 50.8 and 50.4 and 60.4 and 59.8
same,RIGHT THIGH CIRCUMFERENCE 2/3 T15,[6],48.2 and 49.6 and 47.3 (2×) and 56.7 and 50.7 and 46.2 (2×) and 44.5 and 49.8 and 52.3 and 55.6 and 56.5 and 48.7 and 45.0 and 50.9 and 44.0 and 45.2 and 51.8 and 51.0 and 47.9 and 43.2 and 54.2 and 43.7 and 52.9
same,RIGHT THIGH CIRCUMFERENCE 3/3 T15,[6],40.6 and 40.8 and 37.7 (3×) and 49.2 and 38.5 (2×) and 35.3 and 37.2 and 37.1 and 39.7 and 44.5 and 42.3 and 36.6 and 39.2 and 35.5 and 38.7 and 39.4 and 43.2 and 37.5 and 36.4 and 43.9 and 35.8 and 45.5
same,LEFT THIGH CIRCUMFERENCE 1/3 T30,[7],53.4 and 51.2 (2×) and 50.1 and 62.4 and 54.2 and 49.2 and 46.0 and 47.4 and 50.9 and 55.0 and 56.5 and 53.6 and 45.5 and 54.1 and 45.4 and 46.9 and 50.5 and 54.0 and 49.7 and 52.3 and 48.1 and 59.0 and 46.6 and 57.6
same,LEFT THIGH CIRCUMFERENCE 2/3 T30,[7],48.5 and 49.9 and 47.6 and 57.0 and 51.0 and 45.5 and 44.8 and 46.5 (2×) and 49.0 and 51.5 and 54.5 (2×) and 55.3 and 47.5 and 45.3 and 51.2 and 42.6 and 44.0 (2×) and 50.6 and 50.0 and 46.8 and 43.5 and 53.2
same,LEFT THIGH CIRCUMFERENCE 3/3 T30,[7],39.5 (2×) and 38.0 (2×) and 46.3 and 35.9 (2×) and 34.7 (2×) and 36.0 and 36.7 and 38.1 (2×) and 36.1 and 41.4 and 41.5 and 35.7 and 37.0 (2×) and 36.2 and 45.5 and 43.6 and 42.1 and 34.6 and 44.7
same,RIGHT THIGH CIRCUMFERENCE 1/3 T30,[7],54.5 and 51.4 and 51.8 and 63.9 and 53.9 and 48.0 and 47.0 and 48.4 and 51.9 and 56.2 and 57.8 and 52.9 and 49.3 and 46.7 and 53.6 and 47.1 and 46.5 and 49.9 and 53.0 and 48.6 and 48.5 and 49.0 and 59.0 and 46.4 and 58.4
same,RIGHT THIGH CIRCUMFERENCE 2/3 T30,[7],48.2 and 48.0 and 46.8 and 56.4 and 50.3 and 46.5 and 44.3 and 44.6 (2×) and 49.6 and 51.7 and 55.4 and 56.0 and 48.6 and 45.0 and 50.0 and 44.0 and 50.6 and 51.0 and 47.0 and 47.8 and 43.0 and 53.9 and 44.2 and 51.3
same,RIGHT THIGH CIRCUMFERENCE 3/3 T30,[7],40.5 and 40.3 and 36.6 (2×) and 48.1 and 38.2 and 34.2 and 36.4 (2×) and 38.7 (2×) and 38.4 and 43.4 and 41.0 and 36.2 and 36.8 (2×) and 35.2 and 37.8 and 38.3 and 42.5 and 35.7 and 42.8 and 35.6 and 44.3
same,LEFT THIGH CIRCUMFERENCE 1/3 T60,[8],52.7 and 50.5 (2×) and 49.4 and 61.7 and 53.4 (2×) and 48.7 and 44.9 and 46.7 and 50.0 and 53.7 and 55.8 and 51.7 and 44.8 and 52.9 and 44.7 and 46.2 and 49.8 and 48.5 and 50.4 and 47.4 and 57.9 and 45.9 and 56.9
same,LEFT THIGH CIRCUMFERENCE 2/3 T60,[8],47.6 and 49.0 and 46.7 and 56.1 and 50.1 and 44.6 and 43.9 and 45.6 (2×) and 48.1 and 50.6 and 53.6 (2×) and 54.4 and 46.6 and 44.4 and 50.3 and 41.7 and 43.1 (2×) and 49.7 and 49.1 and 45.9 and 42.6 and 52.3
same,LEFT THIGH CIRCUMFERENCE 3/3 T60,[8],39.0 (2×) and 37.5 (2×) and 45.8 and 35.4 (2×) and 34.2 (2×) and 35.5 and 36.2 and 37.6 and 35.6 and 41.6 (2×) and 41.0 and 35.2 and 36.5 (2×) and 35.7 and 45.0 and 42.0 and 36.4 and 34.1 and 44.2
same,RIGHT THIGH CIRCUMFERENCE 1/3 T60,[8],53.8 and 50.7 and 50.0 and 62.4 and 53.2 and 47.3 and 46.0 and 47.2 and 51.0 and 55.5 and 56.7 and 52.0 and 48.4 and 44.7 and 52.8 and 45.0 and 45.9 and 49.3 and 51.8 and 48.1 and 48.5 and 48.3 and 57.8 and 45.7 and 56.5
same,RIGHT THIGH CIRCUMFERENCE 2/3 T60,[8],46.8 and 48.1 and 46.5 and 56.4 and 49.2 and 43.7 and 44.5 and 44.7 and 47.2 and 49.7 and 53.8 and 56.0 and 46.3 and 43.5 (2×) and 49.4 and 44.3 and 50.2 and 48.3 and 45.9 and 45.0 and 41.7 and 52.7 and 43.2 and 50.8
same,RIGHT THIGH CIRCUMFERENCE 3/3 T60,[8],38.2 (2×) and 39.3 and 36.2 (3×) and 47.7 and 37.0 (2×) and 33.8 and 35.7 and 35.6 and 43.0 and 40.8 and 34.8 and 37.7 and 34.2 and 37.2 and 37.9 and 41.7 and 36.0 and 33.7 and 42.4 and 34.3 and 44.0
